The text below walks through data of patent US20060166985A1, “Pyrrolydin-2-one derivatives as inhibitors of thrombin and factor xa” (priority 2002, published 2006).

pKi: −log10 of the molar value.

For this test, the target named is human Thrombin (Homo sapiens, UniProt P00734). In words: In vitro assay for inhibition of Thrombin (chromogenic or fluorogenic assay). The format is biochemical. Particulars: Example 2 chromogenic assay, other Examples fluorogenic assay, read-out: thrombin inhibitory Ki.
For the compound `C[C@@H](C(=O)N1CCOCC1)N1CC[C@H](NS(=O)(=O)CCc2ccc(Br)cc2)C1=O` [Example 33, 2-(4-bromophenyl)-N-{(3S)-1-[(1S)-1-methyl-2-morpholin-4-yl-2-oxoethyl]-2-oxopyrrolidin-3-yl}ethanesulfonamide], the pKi was greater than 7.60.
With `CCOC[C@@H](C(=O)N1CCOCC1)N1CC[C@H](NS(=O)(=O)CCc2ccc(Cl)s2)C1=O` [Example 85, 2-(5-chloro-2-thienyl)-N-{(3S)-1-[(1S)-1-[(ethyloxy)methyl]-2-(4-morpholinyl)-2-oxoethyl]-2-oxo-3-pyrrolidinyl}ethanesulfonamide] the figure was greater than 8.00; with `O=C(C(C1CCOCC1)N1CC[C@H](NS(=O)(=O)CCc2ccc(Cl)s2)C1=O)N1CCOCC1` (stereo partly drawn) [Example 67, 2-(5-chloro-2-thienyl)-N-{(3S)-1-[2-(4-morpholinyl)-2-oxo-1-(tetrahydro-2H-pyran-4-yl)ethyl]-2-oxo-3-pyrrolidinyl}ethanesulfonamide], greater than 6.70; with `O=C([C@H](Cc1cccnc1)N1CC[C@H](NS(=O)(=O)CCc2ccc(Cl)s2)C1=O)N1CCOCC1` [Example 91, 2-(5-chloro-2-thienyl)-N-{(3S)-1-[(1S)-2-(4-morpholinyl)-2-oxo-1-(3-pyridinylmethyl)ethyl]-2-oxo-3-pyrrolidinyl}ethanesulfonamide], greater than 8.00.
With `C[C@@H](C(=O)N1CCOCC1)N1CC[C@H](NS(=O)(=O)CCc2ccc(Cl)cc2)C1=O` [Example 4, 2-(4-chlorophenyl)-N-{(3S)-1-[(1S)-1-methyl-2-morpholin-4-yl-2-oxoethyl]-2-oxopyrrolidin-3-yl}ethanesulfonamide] the figure was greater than 7.30; with `O=C(C[C@@H](C(=O)N1CCOCC1)N1CC[C@H](NS(=O)(=O)CCc2ccc(Cl)s2)C1=O)OCc1ccccc1` [Example 21, Benzyl (3S)-3-[(3S)-3-({[2-(5-chlorothien-2-yl)ethyl]sulfonyl}amino)-2-oxopyrrolidin-1-yl]-4-morpholin-4-yl-4-oxobutanoate], greater than 8.00; with `O=C([C@H](Cc1ccncc1)N1CC[C@H](NS(=O)(=O)CCc2ccc(Cl)s2)C1=O)N1CCOCC1` [Example 90, 2-(5-chloro-2-thienyl)-N-{(3S)-1-[(1S)-2-(4-morpholinyl)-2-oxo-1-(4-pyridinylmethyl)ethyl]-2-oxo-3-pyrrolidinyl}ethanesulfonamide], greater than 7.30.
With `O=C([C@H](Cc1ncno1)N1CC[C@H](NS(=O)(=O)CCc2ccc(Cl)s2)C1=O)N1CCOCC1` [Example 77, 2-(5-chloro-2-thienyl)-N-{(3S)-1-[(1S)-2-(4-morpholinyl)-1-(1,2,4-oxadiazol-5-ylmethyl)-2-oxoethyl]-2-oxo-3-pyrrolidinyl}ethanesulfonamide] the figure was greater than 8.00; with `Cc1noc(C[C@@H](C(=O)N2CCOCC2)N2CC[C@H](NS(=O)(=O)CCc3ccc(Cl)s3)C2=O)n1` [Example 78, 2-(5-chloro-2-thienyl)-N-{(3S)-1-[(1S)-1-[(3-methyl-1,2,4-oxadiazol-5-yl)methyl]-2-(4-morpholinyl)-2-oxoethyl]-2-oxo-3-pyrrolidinyl}ethanesulfonamide], greater than 7.60; with `C/C(=C\S(=O)(=O)N[C@H]1CCN([C@@H](CCN2CCOCC2)C(=O)N2CCOCC2)C1=O)c1ccc(Cl)s1` [Example 96, (1E)-2-(5-chloro-2-thienyl)-N-{(3S)-1-[(1S)-3-(4-morpholinyl)-1-(4-morpholinylcarbonyl)propyl]-2-oxo-3-pyrrolidinyl}-1-propene-1-sulfonamide], greater than 7.30.
For `C[C@@H](C(=O)N1CCOCC1)N1CC[C@H](NS(=O)(=O)CCc2ccc(Cl)cc2F)C1=O` [Example 25, 2-(4-chloro-2-fluorophenyl)-N-{(3S)-1-[(1S)-1-methyl-2-morpholin-4-yl-2-oxoethyl]-2-oxopyrrolidin-3-yl}ethanesulfonamide], the pKi is greater than 6.70.
In the case of `COC[C@@H](C(=O)N1CCOCC1)N1CC[C@H](NS(=O)(=O)CCc2ccc(Cl)cc2)C1=O` [Example 89, 2-(4-chlorophenyl)-N-{(3S)-1-[(1S)-1-[(methyloxy)methyl]-2-(4-morpholinyl)-2-oxoethyl]-2-oxo-3-pyrrolidinyl}ethanesulfonamide] it was greater than 7.30; in that of `O=C(C(c1cccnc1)N1CC[C@H](NS(=O)(=O)CCc2ccc(Cl)s2)C1=O)N1CCOCC1` (mixture of isomers) [Example 92, 2-(5-chloro-2-thienyl)-N-{(3S)-1-[2-(4-morpholinyl)-2-oxo-1-(3-pyridinyl)ethyl]-2-oxo-3-pyrrolidinyl}ethanesulfonamide], greater than 7.30.
In the case of `O=C([C@H](Cc1cccs1)N1CC[C@H](NS(=O)(=O)CCc2ccc(Cl)s2)C1=O)N1CCOCC1` [Example 23, 2-(5-chlorothien-2-yl)-N-{(3S)-1-[(1S)-2-morpholin-4-yl-2-oxo-1-(thien-2-ylmethyl)ethyl]-2-oxopyrrolidin-3-yl}ethanesulfonamide] it was greater than 8.00.
With `C[C@@H](C(=O)N1CCOCC1)N1CC[C@H](N(C)S(=O)(=O)CCc2ccc(Cl)s2)C1=O` [Example 19, 2-(5-Chlorothien-2-yl)-N-methyl-N-{(3S)-1-[(1S)-1-methyl-2-morpholin-4-yl-2-oxoethyl]-2-oxopyrrolidin-3-yl}ethanesulfonamide] the figure was greater than 7.30; with `CC[C@H](C)[C@@H](C(=O)N1CCOCC1)N1CC[C@H](NS(=O)(=O)CC(F)(F)c2ccc(Cl)cc2)C1=O` [Example 29, 2-(4-chlorophenyl)-2,2-difluoro-N-{(3S)-1-[(1S,2S)-2-methyl-1-(morpholin-4-ylcarbonyl)butyl]-2-oxopyrrolidin-3-yl}ethanesulfonamide], greater than 7.60; with `COCC[C@@H](C(=O)N1CCOCC1)N1CC[C@H](NS(=O)(=O)CCc2ccc(Cl)s2)C1=O` [Example 88], greater than 7.60.
For `CC[C@@H](C(=O)N1CCOCC1)N1CC[C@H](NS(=O)(=O)CCc2ccc(Br)cc2)C1=O` [Example 26, 2-(4-bromophenyl)-N-{(3S)-1-[(1S)-1-(morpholin-4-ylcarbonyl)propyl]-2-oxopyrrolidin-3-yl}ethanesulfonamide], the pKi is greater than 7.00.
With `O=C([C@H](Cc1cscn1)N1CC[C@H](NS(=O)(=O)CCc2ccc(Cl)s2)C1=O)N1CCOCC1` [Example 71, 2-(5-chloro-2-thienyl)-N-{(3S)-1-[(1S)-2-(4-morpholinyl)-2-oxo-1-(1,3-thiazol-4-ylmethyl)ethyl]-2-oxo-3-pyrrolidinyl)ethanesulfonamide] the figure was greater than 7.30; with `CC[C@@H](C(=O)N1CCOCC1)N1CC[C@H](NS(=O)(=O)CCc2ccc(Cl)cc2)C1=O` [Example 6, 2-(4-chlorophenyl)-N-{(3S)-1-[(1S)-1-(morpholin-4-ylcarbonyl)propyl]-2-oxopyrrolidin-3-yl}ethanesulfonamide], greater than 7.00; with `CC[C@H](C)[C@@H](C(=O)N1CCOCC1)N1CC[C@H](N(CC(=O)N(C)C)S(=O)(=O)CCc2ccc(Cl)s2)C1=O` [Example 40, N^2-{[2-(5-chlorothien-2-yl)ethyl]sulfonyl)-N^1,N^1-dimethyl-N^2-{(3S)-1-[(1S,2S)-2-methyl-1-(morpholin-4-ylcarbonyl)butyl]-2-oxopyrrolidin-3-yl}glycinamide], greater than 8.00.
In the case of `N#CC[C@@H](C(=O)N1CCOCC1)N1CC[C@H](NS(=O)(=O)CCc2ccc(Cl)s2)C1=O` [Example 76, 2-(5-chloro-2-thienyl)-N-{(3S)-1-[(1S)-1-(cyanomethyl)-2-(4-morpholinyl)-2-oxoethyl]-2-oxo-3-pyrrolidinyl}ethanesulfonamide] it was greater than 7.00; in that of `COC[C@@H](C(=O)N1CCOCC1)N1CC[C@H](NS(=O)(=O)CCc2ccc(Cl)cn2)C1=O` [Example 50, 2-(5-chloro-2-pyridinyl)-N-{(3S)-1-[(1S)-1-[(methyloxy)methyl]-2-(4-morpholinyl)-2-oxoethyl]-2-oxo-3-pyrrolidinyl}ethanesulfonamide], greater than 6.70.
With `CC(CS(=O)(=O)N[C@H]1CCN([C@@H](C)C(=O)N2CCOCC2)C1=O)c1ccc(Cl)s1` (stereo partly drawn) [Example 54, 2-(5-chloro-2-thienyl)-N-{(3S)-1-[(1S)-1-methyl-2-(4-morpholinyl)-2-oxoethyl]-2-oxo-3-pyrrolidinyl}-1-propanesulfonamide] the figure was greater than 7.00; with `COC[C@@H](C(=O)N1CCOCC1)N1CC[C@H](NS(=O)(=O)CC(C)c2ccc(Cl)s2)C1=O` (stereo partly drawn) [Example 58, 2-(5-chloro-2-thienyl)-N-{(3S)-1-[(1S)-1-[(methyloxy)methyl]-2-(4-morpholinyl)-2-oxoethyl]-2-oxo-3-pyrrolidinyl}-1-propanesulfonamide], greater than 7.00.

What is called pKi is the Ki on a negative log10 scale, so that one unit is a factor of ten.
